# Experimental data reported in patent US12054498B2, “Heteroaromatic macrocyclic ether chemotherapeutic agents” (Nuvalent, Inc., priority 2020, dated 2024).
# Experiments:
# ALK-wt = target: T1, ALK-wt (Homo sapiens, UniProt Q9UM73); assay: Biochemical kinase assay, ALK-wt kinase domain; settings: apparent inhibitory constant, Morrison equation; ATP 2 mM in substrate solution; read-out: ALK-wt Ki^app
# T1 construct: purchased Carna 08-518
# Protocol: (§1) First, 250 nL of compound dissolved in DMSO (100-fold of the desired concentration) was dispensed into a 384-well plate. A 12.5 μL substrate solution containing ATP (2 mM) and fluorogenic phosphorylation substrate AQT0101 (26 μM for ALK and ROS1, AssayQuant) or AQT0104 (26 μM for TRKA, AssayQuant) in buffer (50 mM HEPES pH 7.5, 0.01% Brij-35, 0.5 mM EGTA, 10 mM MgCl2) was added and mixed thoroughly. Then, a 12.5 μL kinase solution containing ALK-wt (1.5 nM, Carna, 08-518), ALK ALK L1196M/G1202R (3 nM, SignalChem, A19-12NG), ROS1-wt (0.6 nM, Carna, 08-163), ROS1-G2032R (0.5 nM, SignalChem, R14-12BG), or TRKA-wt (1 nM, BPS Bio, 40280) kinase domains in buffer (50 nM HEPES pH 7.5, 0.01% Brij-35, 2% glycerol, 0.4 mg/mL BSA, 0.5 mM EGTA, and 10 mM MgCl2) was added and mixed thoroughly. The plate was sealed and read by SpectraMax Paradigm at λ=485 nm every 2 minutes for 120 minutes at 30° C. Initial rates of reaction (v) were calculated from the change in fluorescence intensity over time during the initial, linear portion of the reaction. Finally, apparent inhibitory constants (Ki^app) were determined from regression of v and I (inhibitor concentration) to Morrison Equation (E=enzyme concentration): […]
# ALK L1196M/G1202R = target: T2, ALK L1196M/G1202R (Homo sapiens, UniProt Q9UM73, G1202R/L1196M); assay: Biochemical kinase assay, ALK L1196M/G1202R kinase domain; settings: apparent inhibitory constant, Morrison equation; ATP 2 mM in substrate solution; read-out: ALK-L1196M-G1202R Ki^app
# T2 construct: purchased SignalChem A19-12NG
# T2 sequence (Q9UM73 1116-1392 L1196M/G1202R limits assumed): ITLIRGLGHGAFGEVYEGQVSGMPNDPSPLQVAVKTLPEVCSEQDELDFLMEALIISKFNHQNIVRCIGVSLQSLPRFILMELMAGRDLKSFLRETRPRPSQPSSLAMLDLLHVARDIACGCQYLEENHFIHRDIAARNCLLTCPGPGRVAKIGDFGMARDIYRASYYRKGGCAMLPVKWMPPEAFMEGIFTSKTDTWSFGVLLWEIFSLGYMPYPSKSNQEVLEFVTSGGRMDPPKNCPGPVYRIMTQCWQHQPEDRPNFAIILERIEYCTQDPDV
# Protocol: as §1
# ROS1-wt = target: T3, ROS1-wt (Homo sapiens, UniProt P08922); assay: Biochemical kinase assay, ROS1-wt kinase domain; settings: apparent inhibitory constant, Morrison equation; ATP 2 mM in substrate solution; read-out: ROS1-wt Ki^app
# T3 construct: purchased Carna 08-163
# T3 sequence (P08922 1945-2222 limits assumed): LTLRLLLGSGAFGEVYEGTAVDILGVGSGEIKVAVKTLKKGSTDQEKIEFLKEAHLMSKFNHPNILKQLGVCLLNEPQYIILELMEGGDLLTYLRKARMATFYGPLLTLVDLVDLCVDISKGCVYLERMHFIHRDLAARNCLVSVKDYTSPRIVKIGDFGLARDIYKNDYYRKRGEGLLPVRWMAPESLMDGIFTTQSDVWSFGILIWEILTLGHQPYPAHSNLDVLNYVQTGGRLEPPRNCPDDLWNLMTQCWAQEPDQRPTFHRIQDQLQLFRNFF
# Protocol: as §1, with “Then, a 12.5 μL kinase solution containing ALK-wt (1.5 nM, Carna, 08-518), ALK ALK L1196M/G1202R (3 nM, SignalChem, A19-12NG), ROS1-wt (0.6 nM, Carna, 08-163), ROS1-G2032R (0.5 nM, SignalChem, R14-12BG), or TRKA-wt (1 nM, BPS Bio, 40280) kinase domains in buffer (50 nM HEPES pH 7.5, 0.01% Brij-35, 2% glycerol, 0.4 mg/mL BSA, 0.5 mM EGTA, and 10 mM MgCl2) was added and mixed thoroughly.” left out
# ROS1-G2032R = target: T4, ROS1-G2032R (Homo sapiens, UniProt P08922, G2032R); assay: Biochemical kinase assay, ROS1-G2032R kinase domain; settings: apparent inhibitory constant, Morrison equation; ATP 2 mM in substrate solution; read-out: ROS1-G2032R Ki^app
# T4 construct: purchased SignalChem R14-12BG
# T4 sequence (P08922 1945-2222 G2032R limits assumed): as the sequence (P08922 1945-2222 limits assumed) above, with G88R counted along it
# Protocol: as §1, with “Then, a 12.5 μL kinase solution containing ALK-wt (1.5 nM, Carna, 08-518), ALK ALK L1196M/G1202R (3 nM, SignalChem, A19-12NG), ROS1-wt (0.6 nM, Carna, 08-163), ROS1-G2032R (0.5 nM, SignalChem, R14-12BG), or TRKA-wt (1 nM, BPS Bio, 40280) kinase domains in buffer (50 nM HEPES pH 7.5, 0.01% Brij-35, 2% glycerol, 0.4 mg/mL BSA, 0.5 mM EGTA, and 10 mM MgCl2) was added and mixed thoroughly.” left out
# TRKA-wt = target: T5, TRKA-wt (Homo sapiens, UniProt P04629); assay: Biochemical kinase assay, TRKA-wt kinase domain; settings: apparent inhibitory constant, Morrison equation; ATP 2 mM in substrate solution; read-out: TRKA-wt Ki^app
# T5 construct: or TRKA-wt (1 nM, BPS Bio, 40280) kinase domains in buffer; purchased BPS Bio 40280
# T5 sequence (P04629 510-781 limits assumed): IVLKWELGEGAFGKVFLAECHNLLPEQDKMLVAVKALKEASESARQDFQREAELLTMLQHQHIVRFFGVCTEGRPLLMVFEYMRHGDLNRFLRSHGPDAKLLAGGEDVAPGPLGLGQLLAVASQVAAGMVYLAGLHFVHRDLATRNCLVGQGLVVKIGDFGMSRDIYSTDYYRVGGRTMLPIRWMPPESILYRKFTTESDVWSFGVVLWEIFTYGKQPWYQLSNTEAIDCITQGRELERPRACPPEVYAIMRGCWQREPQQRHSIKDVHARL
# Protocol: as §1
# [1] = target: T6, Ba/F3 cells CD74-ROS1 wild-type (wt) (Homo sapiens, UniProt P08922); assay: Ba/F3 cell proliferation assay, CD74-ROS1 wild-type; assay type: cell-based; settings: 72 hours, CellTiter-Glo
# T6 construct: fusion of the C-terminus of ROS1 with the N-terminus of various partner proteins; host or cells: Ba/F3 (RIKEN), retroviral pMSCV-puro; the other entry of the earlier key: CD74 (P04233, HLA class II histocompatibility antigen gamma chain)
# T6 sequence (P08922 1883-2347 limits assumed): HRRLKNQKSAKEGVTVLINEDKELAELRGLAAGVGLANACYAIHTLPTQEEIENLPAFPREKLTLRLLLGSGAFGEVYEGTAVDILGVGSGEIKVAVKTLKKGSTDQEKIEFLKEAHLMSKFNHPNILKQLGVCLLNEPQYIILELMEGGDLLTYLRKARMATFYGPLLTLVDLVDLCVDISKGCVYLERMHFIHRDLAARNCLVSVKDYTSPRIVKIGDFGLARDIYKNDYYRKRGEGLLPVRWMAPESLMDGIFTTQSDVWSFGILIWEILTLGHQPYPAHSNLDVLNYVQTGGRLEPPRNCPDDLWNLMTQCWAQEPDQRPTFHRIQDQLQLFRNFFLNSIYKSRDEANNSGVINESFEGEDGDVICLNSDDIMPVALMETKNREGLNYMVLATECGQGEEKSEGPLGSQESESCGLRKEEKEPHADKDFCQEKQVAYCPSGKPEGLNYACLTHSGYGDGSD
# Summary of the method: (§2)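 First, retrovirally infected Ba/F3 cells were made IL-3-independent and selected with puromycin (0.8 μg/mL). Next, cells were plated and rested one day. Then compounds in 3-fold dilutions were added for 72 hours before CellTiter-Glo readout.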
# [2] = target: T7, Ba/F3 cells CD74-ROS1 G2032R (Homo sapiens, UniProt P08922, G2032R); assay: Ba/F3 cell proliferation assay, CD74-ROS1 G2032R; assay type: cell-based; settings: 72 hours, CellTiter-Glo
# T7 construct: fusion of the C-terminus of ROS1 with the N-terminus of various partner proteins; host or cells: Ba/F3 (RIKEN), retroviral pMSCV-puro; the other entry of the earlier key: CD74 (P04233, HLA class II histocompatibility antigen gamma chain)
# T7 sequence (P08922 1883-2347 G2032R limits assumed): as the sequence (P08922 1883-2347 limits assumed) above, with G150R counted along it
# Summary of the method: as §2
# [3] = target: T8, Ba/F3 cells EML4-ALK wt (variant 1) (Homo sapiens, UniProt Q9UM73); assay: Ba/F3 cell proliferation assay, EML4-ALK wt (variant 1); assay type: cell-based; settings: 72 hours, CellTiter-Glo
# T8 construct: echinoderm microtubule-associated protein-like 4 (EML4) gene and the ALK tyrosine kinase domain; host or cells: Ba/F3 (RIKEN), retroviral pMSCV-puro; the other entry of the earlier key: EML4 (Q9HC35, Echinoderm microtubule-associated protein-like 4)
# T8 sequence (Q9UM73 with tags, fused parts or gaps): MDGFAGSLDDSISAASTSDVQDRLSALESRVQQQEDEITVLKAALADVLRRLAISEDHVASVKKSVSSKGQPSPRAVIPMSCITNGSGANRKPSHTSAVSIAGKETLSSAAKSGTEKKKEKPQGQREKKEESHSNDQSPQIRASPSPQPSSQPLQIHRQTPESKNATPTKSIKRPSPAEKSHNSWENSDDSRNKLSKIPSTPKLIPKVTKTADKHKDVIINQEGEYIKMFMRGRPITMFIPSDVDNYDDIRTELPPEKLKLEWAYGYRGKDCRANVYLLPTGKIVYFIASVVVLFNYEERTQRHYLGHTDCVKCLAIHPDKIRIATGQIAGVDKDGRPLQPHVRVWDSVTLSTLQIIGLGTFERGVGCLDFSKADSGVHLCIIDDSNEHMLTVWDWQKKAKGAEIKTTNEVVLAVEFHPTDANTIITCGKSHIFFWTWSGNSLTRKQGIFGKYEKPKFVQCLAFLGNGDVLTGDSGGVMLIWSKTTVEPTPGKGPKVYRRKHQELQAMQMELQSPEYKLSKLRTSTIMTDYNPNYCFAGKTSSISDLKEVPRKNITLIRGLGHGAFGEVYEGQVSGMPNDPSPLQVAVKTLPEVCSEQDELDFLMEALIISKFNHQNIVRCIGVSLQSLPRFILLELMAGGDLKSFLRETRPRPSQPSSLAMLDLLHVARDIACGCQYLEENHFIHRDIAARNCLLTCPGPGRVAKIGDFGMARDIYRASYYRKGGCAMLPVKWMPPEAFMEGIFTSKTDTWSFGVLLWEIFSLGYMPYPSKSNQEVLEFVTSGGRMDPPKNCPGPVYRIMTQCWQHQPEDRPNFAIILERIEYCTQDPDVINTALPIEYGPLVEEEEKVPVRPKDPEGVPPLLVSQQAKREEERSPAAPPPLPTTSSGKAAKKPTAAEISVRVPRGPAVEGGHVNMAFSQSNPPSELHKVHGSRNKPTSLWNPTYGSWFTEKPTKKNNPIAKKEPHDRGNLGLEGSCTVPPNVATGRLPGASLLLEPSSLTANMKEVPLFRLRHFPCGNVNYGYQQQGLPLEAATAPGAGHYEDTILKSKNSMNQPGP
# Summary of the method: (§3)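 First, Ba/F3 cells were made IL-3-independent via retroviral fusion expression and puromycin selection, then cloned by single-cell dilution. Next, 1,000 cells/well were plated for a day, exposed to 3-fold diluted compounds for 72 hours, and lysed with CellTiter-Glo. Finally, IC50 was fitted by four-parameter logistic regression.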
# [4] = target: T9, Ba/F3 cells EML4-ALK L1196M/G1202R (variant 1) (Homo sapiens, UniProt Q9UM73, G1202R/L1196M); assay: Ba/F3 cell proliferation assay, EML4-ALK L1196M/G1202R (variant 1); assay type: cell-based; settings: 72 hours, CellTiter-Glo
# T9 construct: echinoderm microtubule-associated protein-like 4 (EML4) gene and the ALK tyrosine kinase domain; host or cells: Ba/F3 (RIKEN), retroviral pMSCV-puro; the other entry of the earlier key: EML4 (Q9HC35, Echinoderm microtubule-associated protein-like 4)
# T9 sequence (Q9UM73 with tags, fused parts or gaps L1196M/G1202R): as the sequence (Q9UM73 with tags, fused parts or gaps) above, with L635M, G641R counted along it
# Summary of the method: as §3
# Ba/F3 cells TPM3-TRKA = target: T10, Ba/F3 cells TPM3-TRKA (Homo sapiens, UniProt P04629); assay: Ba/F3 cell proliferation assay, TPM3-TRKA; assay type: cell-based; settings: 72 hours, CellTiter-Glo, read-out: TPM3-NTRK1-wt IC50
# T10 construct: host or cells: Ba/F3 (RIKEN), retroviral pMSCV-puro; the other entry of the earlier key: TPM3 (P06753, Tropomyosin alpha-3 chain)
# T10 sequence (P04629 510-796 limits assumed): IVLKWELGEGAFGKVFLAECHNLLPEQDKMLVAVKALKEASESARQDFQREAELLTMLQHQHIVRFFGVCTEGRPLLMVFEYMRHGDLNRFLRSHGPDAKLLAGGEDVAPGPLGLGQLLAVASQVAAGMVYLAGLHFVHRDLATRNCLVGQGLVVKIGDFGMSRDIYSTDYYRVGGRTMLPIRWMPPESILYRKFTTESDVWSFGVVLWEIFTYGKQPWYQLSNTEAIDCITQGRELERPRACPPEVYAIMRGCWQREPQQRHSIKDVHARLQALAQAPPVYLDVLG
# Summary of the method: as §3
# [5] = system: TPM3-NTRK1-wt IC50 / primary target IC50 (e.g. CD74-ROS1-wt); assay: TRKA selectivity in Ba/F3 cells (TRKA potency divided by primary target potency); assay type: cell-based; settings: for TPM3-NTRK1-wt/CD74-ROS1-G2032R selectivity ratio: TRKA potency / CD74-ROS1-G2032R potency; for TPM3-NTRK1-wt/CD74-ROS1-wt selectivity ratio: TRKA potency / CD74-ROS1-wt potency; for TPM3-NTRK1-wt/EML4-ALK-L1196M-G1202R selectivity ratio: TRKA potency / EML4-ALK-L1196M-G1202R potency; for TPM3-NTRK1-wt/EML4-ALK-wt selectivity ratio: TRKA potency / EML4-ALK-wt potency
# Protocol: TRKA selectivity was calculated by dividing a compound's TRKA potency by its primary target potency (e.g. TPM3-NTRK1-wt IC50/CD74-ROS1-wt IC50). Compound selectivity can be interpreted by binning ratio values: bin A for very high selectivity, ratio >30-fold; bin B for high selectivity, ratio >10-fold; bin C for moderate selectivity, ratio ≥1; and bin D for low selectivity, ratio <1. […] (nd=not determined).
# T1 sequence (Q9UM73 1116-1392 limits assumed): as the sequence (Q9UM73 1116-1392 L1196M/G1202R limits assumed) above, with M81L, R87G counted along it
Structure (SMILES),Ki (ALK-wt) [nM],Ki (ALK L1196M/G1202R) [nM],Ki (ROS1-wt) [nM],Ki (ROS1-G2032R) [nM],Ki (TRKA-wt) [nM],IC50 [1] [nM],IC50 [2] [nM],IC50 [3] [nM],IC50 [4] [nM],IC50 (Ba/F3 cells TPM3-TRKA) [nM],TPM3-NTRK1-wt/CD74-ROS1-G2032R selectivity ratio [5],TPM3-NTRK1-wt/CD74-ROS1-wt selectivity ratio [5],TPM3-NTRK1-wt/EML4-ALK-L1196M-G1202R selectivity ratio [5],TPM3-NTRK1-wt/EML4-ALK-wt selectivity ratio [5]
"CCn1ncc2c1-c1cnc(N)c(c1)OC(C)c1cc(F)ccc1-c1cccnc1C2 (stereo not drawn) [Example 34, 3-ethyl-17-fluoro-20-methyl-21-oxa-3,4,9,24-tetraazapentacyclo[20.3.1.0^2,^6.0^8,^13.0^14,^19]hexacosa-1(25),2(6),4,8(13),9,11,14,16,18,22(26),23-undecaen-23-amine]",< 50,< 50,< 50,< 50,50 to 500,0.1 to 50,0.1 to 50,0.1 to 50,0.1 to 50,50 to 500,"A (bin A for very high selectivity, ratio >30-fold)","A (bin A for very high selectivity, ratio >30-fold)","B (bin B for high selectivity, ratio >10-fold)","A (bin A for very high selectivity, ratio >30-fold)"
"C[C@H]1Oc2cc(cnc2N)-c2c(C#N)ncn2Cc2nccnc2-c2ccc(F)cc21 [Example 46, (20R)-23-amino-17-fluoro-20-methyl-21-oxa-4,6,9,12,24-pentaazapentacyclo[20.3.1.0^2,^6.0^8,^13.0^14,^19]hexacosa-1(25),2,4,8(13),9,11,14,16,18,22(26),23-undecaene-3-carbonitrile]",< 50,50 to 500,< 50,50 to 500,> 500,0.1 to 50,0.1 to 50,0.1 to 50,50 to 500,> 500,"A (bin A for very high selectivity, ratio >30-fold)","A (bin A for very high selectivity, ratio >30-fold)","A (bin A for very high selectivity, ratio >30-fold)","A (bin A for very high selectivity, ratio >30-fold)"
"CCn1nc(Cl)c2c1-c1cnc(N)c(c1)O[C@H](C)c1cc(F)ccc1-c1oc(C)nc1C2 [Example 84, (19R)-5-chloro-3-ethyl-16-fluoro-10,19-dimethyl-11,20-dioxa-3,4,9,23-tetraazapentacyclo[19.3.1.0^2,^6.0^8,^12.0^13,^18]pentacosa-1(24),2(6),4,8(12),9,13,15,17,21(25),22-decaen-22-amine]",< 50,< 50,< 50,< 50,> 500,0.1 to 50,0.1 to 50,50 to 500,50 to 500,> 500,"A (bin A for very high selectivity, ratio >30-fold)","A (bin A for very high selectivity, ratio >30-fold)","C (bin C for moderate selectivity, ratio ≥1)","B (bin B for high selectivity, ratio >10-fold)"
